The target of assay [1] is SERT (serotonin transporter) (Homo sapiens, UniProt P31645). Kind of assay: receptor binding assay.
In assay [2] the target is NET (norepinephrine transporter) (Homo sapiens, UniProt P23975). Kind of assay: receptor binding assay.
Assay [3] concerns the target DAT (dopamine transporter) (Homo sapiens, UniProt Q01959). Briefly: receptor binding assay.
In another assay the target is T1, sigma-2 receptor (σ 2) (Rattus norvegicus, UniProt Q5U3Y7).
T1 sequence (Q5U3Y7 1-176): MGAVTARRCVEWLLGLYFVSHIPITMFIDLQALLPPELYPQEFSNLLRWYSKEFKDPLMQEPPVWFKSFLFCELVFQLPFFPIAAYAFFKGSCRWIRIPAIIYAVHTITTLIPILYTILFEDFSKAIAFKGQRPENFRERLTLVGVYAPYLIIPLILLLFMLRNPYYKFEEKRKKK
Briefly: receptor binding assay.

Assay [4] has as its system male Swiss Webster mice. Kind of assay: forced-swim test. To be noted: 20 mg/kg, i.p., relative to desipramine (20 mg/kg). Type of assay: in vivo, mouse.
For assay [5], the system named is male Swiss Webster mice. Kind of assay: locomotor activity test. To be noted: 20 mg/kg, i.p. The format is in vivo, mouse.

NET (norepinephrine transporter), sequence (P23975 whole entry): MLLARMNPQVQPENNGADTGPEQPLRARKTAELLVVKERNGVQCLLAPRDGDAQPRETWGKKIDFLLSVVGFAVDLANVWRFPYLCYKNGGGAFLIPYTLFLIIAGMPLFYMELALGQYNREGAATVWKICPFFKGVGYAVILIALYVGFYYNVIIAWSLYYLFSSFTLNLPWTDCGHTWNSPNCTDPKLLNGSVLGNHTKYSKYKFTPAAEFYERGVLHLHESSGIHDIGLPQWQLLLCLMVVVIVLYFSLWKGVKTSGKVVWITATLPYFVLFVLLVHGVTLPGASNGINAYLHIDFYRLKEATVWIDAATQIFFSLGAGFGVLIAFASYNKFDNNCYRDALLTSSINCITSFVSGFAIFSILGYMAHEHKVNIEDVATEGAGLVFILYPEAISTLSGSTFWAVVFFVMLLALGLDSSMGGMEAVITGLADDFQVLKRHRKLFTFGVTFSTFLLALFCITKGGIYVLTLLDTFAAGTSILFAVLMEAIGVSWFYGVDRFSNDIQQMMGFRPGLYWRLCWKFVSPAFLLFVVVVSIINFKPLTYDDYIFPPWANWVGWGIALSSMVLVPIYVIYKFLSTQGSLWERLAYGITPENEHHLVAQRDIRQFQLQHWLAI
SERT (serotonin transporter), sequence (P31645 whole entry, species assumed): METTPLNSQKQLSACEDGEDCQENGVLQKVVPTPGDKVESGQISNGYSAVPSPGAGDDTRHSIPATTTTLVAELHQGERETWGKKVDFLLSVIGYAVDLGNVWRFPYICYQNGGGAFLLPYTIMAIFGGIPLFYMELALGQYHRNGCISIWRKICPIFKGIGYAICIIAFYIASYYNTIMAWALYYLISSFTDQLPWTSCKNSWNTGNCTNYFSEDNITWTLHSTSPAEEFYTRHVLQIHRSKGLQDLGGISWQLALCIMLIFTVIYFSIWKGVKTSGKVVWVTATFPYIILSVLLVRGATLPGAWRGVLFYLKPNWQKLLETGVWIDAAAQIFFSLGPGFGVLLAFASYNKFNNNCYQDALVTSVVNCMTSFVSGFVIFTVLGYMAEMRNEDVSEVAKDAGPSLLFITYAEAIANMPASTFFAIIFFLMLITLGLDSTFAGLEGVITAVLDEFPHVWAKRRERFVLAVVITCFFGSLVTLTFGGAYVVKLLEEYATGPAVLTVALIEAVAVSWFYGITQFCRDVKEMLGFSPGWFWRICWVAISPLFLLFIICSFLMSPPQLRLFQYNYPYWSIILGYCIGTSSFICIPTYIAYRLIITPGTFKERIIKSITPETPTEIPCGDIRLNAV
DAT (dopamine transporter), sequence (Q01959 whole entry, species assumed): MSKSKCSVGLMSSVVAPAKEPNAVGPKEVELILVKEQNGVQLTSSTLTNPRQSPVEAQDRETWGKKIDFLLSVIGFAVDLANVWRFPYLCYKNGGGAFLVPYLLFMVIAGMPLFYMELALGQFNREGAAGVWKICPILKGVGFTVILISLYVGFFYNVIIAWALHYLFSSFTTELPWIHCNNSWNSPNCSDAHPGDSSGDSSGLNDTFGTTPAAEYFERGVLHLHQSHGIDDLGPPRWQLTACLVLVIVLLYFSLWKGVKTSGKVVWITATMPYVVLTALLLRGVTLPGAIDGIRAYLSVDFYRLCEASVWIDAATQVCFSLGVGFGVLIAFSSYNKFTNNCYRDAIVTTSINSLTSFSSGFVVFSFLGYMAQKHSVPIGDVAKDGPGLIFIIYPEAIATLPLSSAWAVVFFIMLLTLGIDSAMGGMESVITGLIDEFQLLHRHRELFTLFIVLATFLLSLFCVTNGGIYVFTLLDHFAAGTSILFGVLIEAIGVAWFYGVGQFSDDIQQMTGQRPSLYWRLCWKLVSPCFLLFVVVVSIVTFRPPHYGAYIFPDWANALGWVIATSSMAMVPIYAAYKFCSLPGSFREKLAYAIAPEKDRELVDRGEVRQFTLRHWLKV

Regarding `Cc1nccc2c1C(C)(C)Nc1cc(Br)ccc1-2` [Veranamine], the “affinity for serotonin transporter” value in assay [1] was “no affinity”. Also, the “affinity for norepinephrine transporter” value in assay [2] is on record as “no affinity”. Besides, in assay [3], the “affinity for dopamine transporter” value is “no affinity”. The “binding to the sigma-2 receptor” value at sigma-2 receptor (σ 2) is listed as “did not bind”. The “immobility time in mouse forced-swim test” value with male Swiss Webster mice [4] was “decreasing the immobility time significantly”. Moreover, in the assay with male Swiss Webster mice [5], the “locomotor activity (nonspecific stimulant action)” value is “did not demonstrate nonspecific stimulant action”.

(Values after PMC11187827 (Journal of natural products, 2020).)
